In assay [1] the test system is JAK1-dependent STAT6 phosphorylation downstream of IL-13 stimulation, BEAS-2B cells. Put plainly: JAK1 pathway assay in cell lines: P-STAT6 in BEAS-2B cells + IL13. The format is cell-based. To be noted: Homo sapiens, BEAS-2B, 1 h, BEAS-2B human bronchial epithelial cells, 1 hr compound preincubation, read-out: P-STAT6 BEAS2B + IL13 IC50. As to the method:
JAK1 Pathway Assay in Cell Lines was Carried Out as Follows:
Inhibitor potency (EC50) was determined in cell-based assays designed to measure JAK1 dependent STAT phosphorylation. As noted above, inhibition of IL-4, IL-13, and IL-9 signaling by blocking the Jak/Stat signaling pathway can alleviate asthmatic symptoms in pre-clinical lung inflammation models (Mathew et al., 2001, J Exp Med 193(9): 1087-1096; Kudlacz et. al., 2008, Eur J. Pharmacol 582(1-3): 154-161).
In one assay approach, TF-1 human erythroleukemia cells obtained from the American Type Culture Collection (ATCC; Manassas, Va.) were used to measure JAK1-dependent STAT6 phosphorylation downstream of IL-13 stimulation. Prior to use in the assays, TF-1 cells were starved of GM-CSF overnight in OptiMEM medium (Life Technologies, Grand Island, N.Y.) supplemented with 0.5% charcoal/dextran stripped fetal bovine serum (FBS), 0.1 mM non-essential amino acids (NEAA), and 1 mM sodium pyruvate. The assays were run in 384-well plates in serum-free OptiMEM medium using 300,000 cells per well. In a second assay approach, BEAS-2B human bronchial epithelial cells obtained from ATCC were plated at 100,000 cells per well of a 96-well plate one day prior to the experiment. The BEAS-2B assay was run in complete growth medium (bronchial epithelial basal medium plus bulletkit; Lonza; Basel, Switzerland).
Test compounds were serially diluted 1:2 in DMSO and then diluted 1:50 in medium just before use. Diluted compounds were added to the cells, for a final DMSO concentration of 0.2%, and incubated for 30 m (for the TF-1 assay) or 1 hr (for the BEAS-2B assay) at 37° C. Then, cells were stimulated with human recombinant cytokine at their respective EC90 concentrations, as previously determined for each individual lot. Cells were stimulated with […] (R&D Systems, Minneapolis, Minn.) for 15 m/at 37° C. The TF-1 cell reactions were stopped by the direct addition of 10× lysis buffer (Cell Signaling Technologies, Danvers, Mass.), whereas the BEAS-2B cell incubations were halted by the removal of medium and addition of 1× lysis buffer. The resultant samples were frozen in the plates at −80° C. Compound mediated inhibition of STAT6 phosphorylation was measured in the cell lysates using MesoScale Discovery (MSD) technology (Gaithersburg, Md.). EC50 values were determined as the concentration of compound required for 50% inhibition of STAT phosphorylation relative to that measured for the DMSO control.

Assay [2] has as its target isolated recombinant JAK2 kinase domain (Homo sapiens, UniProt O60674). The experiment in a line: JAK enzyme assay (Caliper LabChip), JAK2 kinase domain. Conditions: ATP 25 μM, 0.2 nM JAK2, Morrison tight binding model.
Experimental: JAK Enzyme Assays were Carried Out as Follows:
The activity of the isolated recombinant JAK1 and JAK2 kinase domain was measured by monitoring phosphorylation of a peptide derived from JAK3 ([sequence] fluorescently labeled on the N-terminus with 5-carboxyfluorescein) using the Caliper LabChip® technology (Caliper Life Sciences, Hopkinton, Mass.). […] Reactions were incubated at 22° C. in 384-well polypropylene microtiter plates for 30 minutes and then stopped by addition of 25 μL of an EDTA containing solution (100 mM HEPES buffer (pH 7.2), 0.015% Brij-35, 150 mM EDTA), resulting in a final EDTA concentration of 50 mM. After termination of the kinase reaction, the proportion of phosphorylated product was determined as a fraction of total peptide substrate using the Caliper LabChip® 3000 according to the manufacturer's specifications.
Assay [3] concerns the target isolated recombinant JAK1 kinase domain (Homo sapiens, UniProt P23458). Put plainly: JAK enzyme assay (Caliper LabChip), JAK1 kinase domain. The format is biochemical. To be noted: ATP 25 μM; 1.5 nM JAK1; Morrison tight binding model.

Chain of isolated recombinant JAK1 kinase domain (P23458 875-1153 limits assumed): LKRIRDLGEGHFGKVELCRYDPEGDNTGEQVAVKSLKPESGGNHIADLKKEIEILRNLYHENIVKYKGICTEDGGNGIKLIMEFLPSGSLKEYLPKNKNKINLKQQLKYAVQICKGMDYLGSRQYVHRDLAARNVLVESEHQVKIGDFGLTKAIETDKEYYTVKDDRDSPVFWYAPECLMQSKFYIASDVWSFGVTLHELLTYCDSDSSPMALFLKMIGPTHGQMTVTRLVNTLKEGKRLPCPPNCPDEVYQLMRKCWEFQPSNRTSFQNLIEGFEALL
Chain of isolated recombinant JAK2 kinase domain (O60674 849-1124 limits assumed): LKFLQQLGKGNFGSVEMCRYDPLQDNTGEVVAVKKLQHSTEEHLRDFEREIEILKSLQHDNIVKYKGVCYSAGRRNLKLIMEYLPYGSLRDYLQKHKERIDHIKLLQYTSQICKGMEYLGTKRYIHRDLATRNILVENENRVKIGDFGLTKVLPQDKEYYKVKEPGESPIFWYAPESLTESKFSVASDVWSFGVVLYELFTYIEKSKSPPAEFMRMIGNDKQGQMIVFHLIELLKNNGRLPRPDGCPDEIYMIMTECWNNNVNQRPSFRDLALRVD

The IC50 is the midpoint of a concentration-inhibition curve. As usually defined, the Ki is a dissociation constant, usually derived from enzyme kinetics or from competition with a known ligand. For `CNC(=O)Cn1cc(NC(=O)c2cnn3cccnc23)c(-c2cc(SC(F)F)ccc2OC(F)F)n1` [Example 32, N-[3-[2-(difluoromethoxy)-5-(difluoromethylsulfanyl)phenyl]-1-[2-(methylamino)-2-oxo-ethyl]pyrazol-4-yl]pyrazolo[1,5-a]pyrimidine-3-carboxamide], the half-maximal inhibitory concentration (IC50) in assay [1] was 14 nM. The inhibitory constant (Ki) in assay [2] turned out to be 0.51 nM; in assay [3], 0.35 nM.

On to `CN(C)C(=O)Cn1cc(NC(=O)c2cnn3cccnc23)c(-c2cc(SC(F)F)ccc2OC(F)F)n1` [Example 33, N-[3-[2-(difluoromethoxy)-5-(difluoromethylsulfanyl)phenyl]-1-[2-(dimethylamino)-2-oxo-ethyl]pyrazol-4-yl]pyrazolo[1,5-a]pyrimidine-3-carboxamide], for which the IC50 in assay [1] came out at 10 nM. Also, the figures for the Ki in assay [2] and in assay [3] were 0.52 nM and 0.21 nM, respectively.

Regarding `CC(=O)N1CCC(Sc2ccc(OC(F)F)c(-c3n[nH]cc3NC(=O)c3cnn4cccnc34)c2)CC1` [Example 34, N-[3-[5-[(1-acetyl-4-piperidyl)sulfanyl]-2-(difluoromethoxy)phenyl]-1H-pyrazol-4-yl]pyrazolo[1,5-a]pyrimidine-3-carboxamide], in assay [1], the concentration for half-maximal inhibition (IC50) was determined as 251 nM. In addition, the inhibitory constant (Ki) in assay [2] is 0.39 nM; in assay [3], 1.02 nM.

As to `O=C(Nc1cn(C2CN(C3COC3)C2)nc1-c1cc(SC2COC2)ccc1OC(F)F)c1cnn2cccnc12` [Example 35, N-[3-[2-(difluoromethoxy)-5-(oxetan-3-ylsulfanyl)phenyl]-1-[1-(oxetan-3-yl)azetidin-3-yl]pyrazol-4-yl]pyrazolo[1,5-a]pyrimidine-3-carboxamide], the half-inhibitory concentration (IC50) in assay [1] came out at 42 nM. In addition, the inhibition constant (Ki) in assay [2] came to 0.9 nM; in assay [3], 1.14 nM.

In the case of `O=C(Nc1cn(CC(=O)N2CCC(N3CCOCC3)CC2)nc1-c1cc(SC(F)F)ccc1OC(F)F)c1cnn2cccnc12` [Example 42, N-[3-[2-(difluoromethoxy)-5-(difluoromethylsulfanyl)phenyl]-1-[2-(4-morpholino-1-piperidyl)-2-oxo-ethyl]pyrazol-4-yl]pyrazolo[1,5-a]pyrimidine-3-carboxamide], the IC50 in assay [1] stood at 23 nM. Besides, the Ki in assay [2] stood at 0.72 nM; in assay [3], 0.34 nM.

As to `COC(=O)CSc1ccc(OC(F)F)c(-c2n[nH]cc2NC(=O)c2cnn3cccnc23)c1` [Example 43, methyl 2-[4-(difluoromethoxy)-3-[4-(pyrazolo[1,5-a]pyrimidine-3-carbonylamino)-1H-pyrazol-3-yl]phenyl]sulfanylacetate], the IC50 in assay [1] was determined as 37 nM. Moreover, the Ki in assay [2] was 0.15 nM; in assay [3], 0.32 nM.

`CSc1ccc(OC(F)F)c(-c2nn(CC(=O)N(C)C)cc2NC(=O)c2cnn3cccnc23)c1` [Example 44]: the IC50 in assay [1] is 10 nM. Besides, the Ki in assay [2] stood at 0.24 nM; in assay [3], 0.17 nM.

Take `CNC(=O)Cn1cc(NC(=O)c2cnn3cccnc23)c(-c2cc(SC)ccc2OC(F)F)n1` [Example 45, N-[3-[2-(difluoromethoxy)-5-methylsulfanyl-phenyl]-1-[2-(methylamino)-2-oxo-ethyl]pyrazol-4-yl]pyrazolo[1,5-a]pyrimidine-3-carboxamide]: in assay [1], the half-inhibitory concentration (IC50) came to 8 nM. In addition, the Ki in assay [2] and in assay [3] was 0.21 nM each time.

For `C[C@H](O)Cn1cc(Sc2ccc(OC(F)F)c(-c3nn(CC(=O)N(C)C)cc3NC(=O)c3cnn4cccnc34)c2)cn1` [Example 46, (S)-N-(3-(2-(difluoromethoxy)-5-((1-(2-hydroxypropyl)-1H-pyrazol-4-yl)thio)phenyl)-1-(2-(dimethylamino)-2-oxoethyl)-1H-pyrazol-4-yl)pyrazolo[1,5-a]pyrimidine-3-carboxamide], the IC50 in assay [1] was found to be 223 nM. For the same molecule, the inhibition constant Ki in assay [2] was 1.28 nM; in assay [3] it was 1.24 nM.

With `CN(C)C(=O)Cn1cc(NC(=O)c2cnn3cccnc23)c(-c2cc(SCC(F)(F)F)ccc2OC(F)F)n1` [Example 47, N-(3-(2-(difluoromethoxy)-5-((2,2,2-trifluoroethyl)thio)phenyl)-1-(2-(dimethylamino)-2-oxoethyl)-1H-pyrazol-4-yl)pyrazolo[1,5-a]pyrimidine-3-carboxamide], the IC50 in assay [1] turned out to be 15 nM. Besides, the inhibitory constant (Ki) came out at 0.78 nM in assay [2] and 0.18 nM in assay [3].

In the case of `CN(C)C(=O)Cn1cc(NC(=O)c2cnn3cccnc23)c(-c2cc([S+](C)[O-])ccc2OC(F)F)n1` (stereo not drawn) [Example 48, N-(3-(2-(difluoromethoxy)-5-(methylsulfinyl)phenyl)-1-(2-(dimethylamino)-2-oxoethyl)-1H-pyrazol-4-yl)pyrazolo[1,5-a]pyrimidine-3-carboxamide], the half-maximal inhibitory concentration (IC50) in assay [1] was 518 nM. In addition, the inhibition constant (Ki) in assay [2] stood at 4.44 nM; in assay [3], 1.35 nM.

`CN(C)C(=O)Cn1cc(NC(=O)c2cnn3cccnc23)c(-c2cc(S(C)(=O)=O)ccc2OC(F)F)n1` [Example 49, N-(3-(2-(difluoromethoxy)-5-(methylsulfonyl)phenyl)-1-(2-(dimethylamino)-2-oxoethyl)-1H-pyrazol-4-yl)pyrazolo[1,5-a]pyrimidine-3-carboxamide]: in assay [1], the half-inhibitory concentration (IC50) was 214 nM. The Ki in assay [2] is 0.79 nM; in assay [3] it was 0.45 nM.

For `CN(C)C(=O)Cn1cc(NC(=O)c2cnn3cccnc23)c(-c2cc(S(=O)(=O)C(F)F)ccc2OC(F)F)n1` [Example 50, N-(3-(2-(difluoromethoxy)-5-((difluoromethyl)sulfonyl)phenyl)-1-(2-(dimethylamino)-2-oxoethyl)-1H-pyrazol-4-yl)pyrazolo[1,5-a]pyrimidine-3-carboxamide], the half-inhibitory concentration (IC50) in assay [1] was 38 nM. For the same molecule, the inhibitory constant (Ki) came to 0.56 nM in assay [2] and 0.3 nM in assay [3].

For the origin of these results see patent US20220024945A1, “THERAPEUTIC COMPOUNDS AND COMPOSITIONS, AND METHODS OF USE THEREOF” (Genentech, Inc., priority 2017, published 2022).
